Structures can show the parent of a compound that is named as a salt. Where two headings read alike, the source gives them in different places.

Data set [1] concerns Ba/F3 EGFR ASV ins cells. The data set is described as follows: Cell proliferation, Ba/F3 EGFR ASV ins (CellTiter-Glo, 72 h).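 Also: IL3-independent Ba/F3 cells transduced with EGFR V769_D770insASV, cellular ATP luminescence after compound exposure, growth relative to DMSO control with the day-0 baseline reading subtracted.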 The format is cell-based. The note with it: Ba/F3 EGFR, 72 h.
Procedure: WT or mutant cells were seeded in 384 well plates at appropriate concentrations with corresponding growth media supplemented with 10% FBS, for each experiment, identical plates were prepared in duplicates, and the plates were incubated overnight. On the next day, one of each duplicated plates was dosed with tested compounds at a series of concentrations, and another one of the duplicated plate was analysied for G0 value. The dosed plates were incubate for another 72 h at 37° C. with 5% CO2 and the number of viable cells in each well of the G0 plates or the dosed plates were measured by CellTiter-Glo® Luminescent Cell Viability Assay (Promega). This assay is a luminescent method for determining the number viable cells through measurement of cellular ATP concentration by detection of luciferase activity. Detection reagents (15 µl) was dispensed into per well, and the plates were incubate for 30 min at room temperature. Then, the luminescence in each well was measured using the Envision plate reader (PerkinElmer). The percentage of proliferation was calculated based on the formula: %Proliferation= 100 × (G3 value of sample well-Go value)/(G3 value of DMSO control-Go value).
Data set [2] addresses T1, human Her2 exon 20 insertion mutation YVMA (Homo sapiens, UniProt P04626, INS775YVMA).
T1 construct: expressed in transfected cells; host or cells: NIH-3T3, lentiviral transduction, puromycin selection
Nature of the data set: Her2 Exon 20 YVMA insertion cellular phosphorylation inhibition (MSD p-Her2 Y1248/total Her2).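 Also: lentivirally transduced NIH-3T3 cells in 1% FBS medium, electrochemiluminescent MSD read-out, graded compound concentrations at 37 °C.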 The format is cell-based. Conditions: Her2 YVMAins cells, 4 h compound.

For data set [3], the system named is Ri-1 cells. Nature of the data set: BTK (wt) cell proliferation, Ri-1 (CellTiter-Glo, 72 h).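 Also: viable cells quantified as cellular ATP luminescence, proliferation normalized to a time-zero plate and the DMSO control, compounds tested across a dilution series.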 The format is cell-based. The note with it: Ri-1 cells, 72 h, CellTiter-Glo, read-out: BTK WT Ri-1 GI50. A general note: In ATP-based viability assays light output follows the ATP content of the culture.
Data set [4] relates to TMD-8 cells. Nature of the data set: BTK (wt) cell proliferation, TMD-8 (CellTiter-Glo, 72 h).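 Also: viable cells quantified by ATP-based luminescence, proliferation expressed as percent of DMSO control after subtracting a time-zero baseline plate read at dosing.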 In kind it is cell-based. Conditions: TMD-8 cells, 72 h, CellTiter-Glo, read-out: BTK WT TMD-8 GI50.
Procedure: (§1) OCI-LY-10 at 3,750 cells/well, TMD-8 and Ri-1 at 2,000 cells/well, and DB at 1,250 cells/well, respectively, were sorted into 384-well plates in RPMI1640 medium with 10% FBS. After overnight incubation, all cells were incubated with compound at a series of concentrations. Meanwhile, a duplicated plate of each cell line was prepared for measuring G0 value. The dosed plates were further incubated for 72 hours and the number of viable cells was measured by CellTiter-Glo® Luminescent Cell Viability Assay (Promega), a luminescent method for determining the number of viable cells through measurement of cellular ATP concentration using Envision plate reader (PerkinElmer). The percentage of proliferation was calculated as: % Proliferation = 100 × (G3 value of sample well - G0 value)/(G3 value of DMSO control - G0 value).
The test system of data set [5] is OCI-LY-10 cells. Nature of the data set: BTK (wt) cell proliferation, OCI-LY-10 (CellTiter-Glo, 72 h).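 Also: viable cells quantified via cellular ATP luminescence, proliferation given as percent of DMSO control after subtracting a duplicate plate read at time of dosing.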 The format is cell-based. Conditions: OCI-LY-10 cells, 72 h, CellTiter-Glo, read-out: BTK WT OCI-LY-10 GI50.
Procedure: as §1
For data set [6], the target named is T2, human EGFR exon 20 H773_V774insNPH (Homo sapiens, UniProt P00533, INS773NPH).
T2 construct: host or cells: Ba/F3
Nature of the data set: EGFR Exon20 NPH insertion cellular phosphorylation inhibition (MSD pEGFR Y1068/total EGFR).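 Also: IL3-independent Ba/F3 cells with constitutively phosphorylated EGFR, compound exposure at 37 °C under 5% CO2, electrochemiluminescent MSD measurement of the p-EGFR to total EGFR ratio.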 In kind it is cell-based. The note with it: Ba/F3 EGFR NPH ins cells, 4 h compound, p-EGFR(Y1068)/total EGFR.

Data set [7] can be described thus: In vitro human hepatocytes clearance assay. Conditions: both, human, cryopreserved human hepatocytes (suspension), human hepatocytes Clint (µL/min/10^6cells), mixed gender human hepatocytes, incubation up to 100 min.
Data set [8] deals with DB cells. The data set is described as follows: BTK (wt) cell proliferation, DB (CellTiter-Glo, 72 h).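 Also: DB cells in 384-well plates given a dilution series of compound, viable cells read by ATP luminescence, growth expressed versus DMSO control after subtracting a time-zero plate reading.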 The format is cell-based. The note with it: Homo sapiens, DB, DB cells, CellTiter-Glo, read-out: Non-BCR activated DB GI50.
Data set [9] has as its target T3, WT EGFR (Homo sapiens, UniProt P00533).
T3 construct: host or cells: A-431
Nature of the data set: WT EGFR cellular phosphorylation inhibition in A-431 (hEGF stimulated, MSD).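 Also: electrochemiluminescence read-out of EGFR Tyr1068 phosphorylation expressed as ratio to total EGFR, cells kept in medium with 1% FBS, compounds tested as a concentration series.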 The note with it: A431 cells, 4 h compound, then 100 ng/ml hEGF 10 min. In kind it is cell-based.

Data set [10] relates to NCI-H1975 EGFR L858R/T790M cells. Nature of the data set: Cell proliferation, NCI-H1975 EGFR L858R/T790M (CellTiter-Glo, 72 h).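 Also: viable cells quantified by luciferase-based ATP luminescence, proliferation expressed relative to DMSO-treated wells (100%) after subtracting a parallel plate read at the time of dosing.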 The format is cell-based. Conditions: Homo sapiens, NCI-H1975, 72 h.
For data set [11], the system named is WT EGFR cell line A-431. Nature of the data set: Cell proliferation, WT EGFR A431 (CellTiter-Glo, 72 h).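 Also: proliferation from a luminescent ATP viability signal, expressed as 100 × (treated minus time-zero plate) over (DMSO control minus time-zero plate), cells grown with 10% FBS.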 In kind it is cell-based. The note with it: Homo sapiens, A-431, 72 h.
Data set [12] deals with Ba/F3 EGFR NPH ins cells. Nature of the data set: Cell proliferation, Ba/F3 EGFR NPH ins (CellTiter-Glo, 72 h).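 Also: IL3-independent cells carrying constitutively phosphorylated EGFR, compound dilution series, viable cells quantified by ATP luminescence, growth relative to DMSO wells after subtracting pre-dosing (day 0) baseline.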 In kind it is cell-based. Conditions: Ba/F3 EGFR, 72 h.
Data set [13] has as its target T4, human EGFR exon 20 V769_D770insASV (Homo sapiens, UniProt P00533, INS769ASV).
T4 construct: expressed in transfected cells; host or cells: Ba/F3 (DSMZ ACC-300), lentiviral transduction, puromycin selection, IL3 depletion
Nature of the data set: EGFR Exon20 ASV insertion cellular phosphorylation inhibition (MSD pEGFR Y1068/total EGFR).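 Also: electrochemiluminescent readout on an MSD SECTOR Imager, IL3-independent transduced cells in medium with 1% FBS, compound concentration series at 37 °C and 5% CO2.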 In kind it is cell-based. The note with it: Ba/F3 EGFR ASV ins cells, 4 h compound, p-EGFR(Y1068)/total EGFR.

For data set [14], the target named is T5, EGFR L858R&T790M (Homo sapiens, UniProt P00533, L858R/T790M).
T5 construct: host or cells: NCI-H1975
T5 sequence (P00533 25-1210 T790M/L858R): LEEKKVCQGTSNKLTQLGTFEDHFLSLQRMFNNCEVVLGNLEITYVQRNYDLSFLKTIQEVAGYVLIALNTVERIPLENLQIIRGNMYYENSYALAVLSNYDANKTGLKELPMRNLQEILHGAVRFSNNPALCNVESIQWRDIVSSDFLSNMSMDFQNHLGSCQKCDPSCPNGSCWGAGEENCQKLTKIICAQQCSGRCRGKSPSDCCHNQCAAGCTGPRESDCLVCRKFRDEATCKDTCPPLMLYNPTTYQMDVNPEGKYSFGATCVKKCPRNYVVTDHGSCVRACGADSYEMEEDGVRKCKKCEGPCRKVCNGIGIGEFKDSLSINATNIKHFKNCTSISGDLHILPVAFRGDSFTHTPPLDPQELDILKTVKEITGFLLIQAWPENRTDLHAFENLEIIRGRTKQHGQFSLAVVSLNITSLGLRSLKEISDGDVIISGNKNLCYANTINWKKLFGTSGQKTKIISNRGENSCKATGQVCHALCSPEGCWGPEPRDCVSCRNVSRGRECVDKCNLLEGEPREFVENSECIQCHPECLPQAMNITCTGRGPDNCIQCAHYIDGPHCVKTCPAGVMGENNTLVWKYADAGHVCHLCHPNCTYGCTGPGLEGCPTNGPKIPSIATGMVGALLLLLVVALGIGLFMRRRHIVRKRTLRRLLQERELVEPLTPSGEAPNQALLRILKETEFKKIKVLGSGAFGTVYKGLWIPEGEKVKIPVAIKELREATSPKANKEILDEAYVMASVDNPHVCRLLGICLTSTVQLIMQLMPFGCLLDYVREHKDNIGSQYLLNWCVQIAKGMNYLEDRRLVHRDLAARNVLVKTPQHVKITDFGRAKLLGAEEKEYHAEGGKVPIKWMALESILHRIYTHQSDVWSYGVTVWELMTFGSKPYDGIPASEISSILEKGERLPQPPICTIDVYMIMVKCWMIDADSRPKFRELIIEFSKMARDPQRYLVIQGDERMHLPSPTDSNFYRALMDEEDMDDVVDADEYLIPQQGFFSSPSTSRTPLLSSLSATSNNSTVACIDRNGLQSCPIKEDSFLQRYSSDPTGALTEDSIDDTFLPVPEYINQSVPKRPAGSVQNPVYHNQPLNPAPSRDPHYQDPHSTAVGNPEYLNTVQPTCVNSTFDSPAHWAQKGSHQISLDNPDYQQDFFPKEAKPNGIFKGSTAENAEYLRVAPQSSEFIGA
The data set is described as follows: EGFR L858R and T790M cellular phosphorylation inhibition in NCI-H1975 (MSD).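 Also: phosphorylated and total EGFR detected by electrochemiluminescence, cells exposed to compound in medium containing 1% FBS at 37 °C.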 The format is cell-based. The note with it: NCI-H1975 cells, 4 h compound, p-EGFR(Y1068)/total EGFR; read-out: EGFR L858R and T790M mutation IC50.
Procedure: One day before the test, WT or mutant cells were seeded in 96 well plates at appropriate concentrations with corresponding growth media supplemented with 1% FBS, and incubated overnight. The next day, tested compounds at a series of concentrations were added into each individual well of the plates, and the plates were incubated for 4 h at 37° C. with 5% CO2.
The EGFR (Y1068) phosphorylation level (activity) of cells in each well were then measured with MSD kit named “MULTI-SPOT®96 4-Spot HB Prototype EGFR Triplex [sequence]: pEGFR(Tyr1068),pEGFR(Tyr1173), Total EGFR” according to the manufacturer’s instruction (MESO SCALE DISCOVERY, Cat# N45ZB-1). The assay is an electrochemiluminescent method for determining both phosphorylated and total EGFR of cells with an MSD SECTOR® Imager and the ratio of p-EGFR/total EGFR can be generated by the machine. The Her2 (Y1248) phosphorylation level (activity) of cells in each well were measured with MSD Kit named “Phospho-ErbB2 (Tyr1248) Assay Whole Cell Lysate Kit” according to the manufacturer’s instruction (MESO SCALE DISCOVERY, Cat# K151CLD-3). The assay is an electrochemiluminescent method (MESO SCALE DISCOVERY) for determining both phosphorylated and total Her2 of cells with an MSD SECTOR® Imager and then the ratio of p-Her2/total Her2 can be generated by the machine.

Data set [15] relates to Her2 exon 20 insertion YVMA transduced NIH-3T3 cell line. Nature of the data set: Cell proliferation, Her2 YVMAins NIH-3T3 (CellTiter-Glo, 72 h).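 Also: viable cells quantified by ATP luminescence, growth over a day-zero baseline plate expressed as percent of DMSO control growth, compound dilution series in 10% FBS medium.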 In kind it is cell-based. The note with it: Mus musculus, NIH3T3, 72 h, Her2 YVMAins cells, 72 h proliferation; read-out: Her2 Exon 20 YVMA insertion GI50.
Data set [16] is described as follows: In vitro rat hepatocytes clearance assay. The note with it: male, rat, cryopreserved rat hepatocytes (suspension), rat hepatocytes Clint (µL/min/10^6cells), 1 µM-range incubation up to 100 min.
Where [17] appears, read: Ba/F3 EGFR ASV ins, 72 h proliferation, read-out: EGFR Exon20 ASV insertion GI50.
The mark [18] stands for this setting: NCI-H1975, 72 h proliferation, read-out: EGFR L858R and T790M mutation GI50.
The mark [19] stands for this setting: A431, 72 h proliferation, read-out: EGFR WT A431 GI50.
[20] abbreviates: Ba/F3 EGFR NPH ins, 72 h proliferation, read-out: EGFR Exon20 NPH insertion GI50.

T3 sequence (P00533 25-1210): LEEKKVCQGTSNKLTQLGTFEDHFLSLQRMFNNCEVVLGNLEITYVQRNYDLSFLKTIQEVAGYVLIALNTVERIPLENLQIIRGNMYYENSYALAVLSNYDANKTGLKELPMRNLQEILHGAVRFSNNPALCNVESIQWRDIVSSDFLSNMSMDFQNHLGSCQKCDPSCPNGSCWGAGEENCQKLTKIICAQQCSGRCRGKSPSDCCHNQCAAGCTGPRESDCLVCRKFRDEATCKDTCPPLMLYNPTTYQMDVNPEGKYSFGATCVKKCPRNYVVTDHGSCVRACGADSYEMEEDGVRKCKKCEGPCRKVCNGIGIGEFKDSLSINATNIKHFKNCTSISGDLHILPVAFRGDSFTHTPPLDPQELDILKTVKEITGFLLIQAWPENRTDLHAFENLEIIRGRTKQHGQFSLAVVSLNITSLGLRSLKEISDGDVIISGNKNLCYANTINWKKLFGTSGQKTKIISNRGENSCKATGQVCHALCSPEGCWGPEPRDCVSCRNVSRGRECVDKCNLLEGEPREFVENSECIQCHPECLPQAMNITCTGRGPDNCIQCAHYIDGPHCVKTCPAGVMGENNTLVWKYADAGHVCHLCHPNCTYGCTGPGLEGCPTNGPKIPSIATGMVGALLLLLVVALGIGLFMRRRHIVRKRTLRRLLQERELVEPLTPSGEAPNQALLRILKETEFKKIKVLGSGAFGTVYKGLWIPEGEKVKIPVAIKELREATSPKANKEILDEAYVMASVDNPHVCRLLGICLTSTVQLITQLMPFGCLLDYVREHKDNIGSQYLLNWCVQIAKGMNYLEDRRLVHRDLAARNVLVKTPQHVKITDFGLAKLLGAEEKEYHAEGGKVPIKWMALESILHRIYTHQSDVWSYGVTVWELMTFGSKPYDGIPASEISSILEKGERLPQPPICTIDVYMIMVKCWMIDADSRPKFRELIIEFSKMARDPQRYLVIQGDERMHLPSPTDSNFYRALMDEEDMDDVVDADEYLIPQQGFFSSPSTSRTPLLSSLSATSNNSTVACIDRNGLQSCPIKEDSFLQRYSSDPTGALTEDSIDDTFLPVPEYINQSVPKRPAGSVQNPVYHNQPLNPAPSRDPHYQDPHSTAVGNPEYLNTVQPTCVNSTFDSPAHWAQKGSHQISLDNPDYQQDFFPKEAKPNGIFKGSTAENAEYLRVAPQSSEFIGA
T4 sequence (P00533 with tags, fused parts or gaps INS769ASV): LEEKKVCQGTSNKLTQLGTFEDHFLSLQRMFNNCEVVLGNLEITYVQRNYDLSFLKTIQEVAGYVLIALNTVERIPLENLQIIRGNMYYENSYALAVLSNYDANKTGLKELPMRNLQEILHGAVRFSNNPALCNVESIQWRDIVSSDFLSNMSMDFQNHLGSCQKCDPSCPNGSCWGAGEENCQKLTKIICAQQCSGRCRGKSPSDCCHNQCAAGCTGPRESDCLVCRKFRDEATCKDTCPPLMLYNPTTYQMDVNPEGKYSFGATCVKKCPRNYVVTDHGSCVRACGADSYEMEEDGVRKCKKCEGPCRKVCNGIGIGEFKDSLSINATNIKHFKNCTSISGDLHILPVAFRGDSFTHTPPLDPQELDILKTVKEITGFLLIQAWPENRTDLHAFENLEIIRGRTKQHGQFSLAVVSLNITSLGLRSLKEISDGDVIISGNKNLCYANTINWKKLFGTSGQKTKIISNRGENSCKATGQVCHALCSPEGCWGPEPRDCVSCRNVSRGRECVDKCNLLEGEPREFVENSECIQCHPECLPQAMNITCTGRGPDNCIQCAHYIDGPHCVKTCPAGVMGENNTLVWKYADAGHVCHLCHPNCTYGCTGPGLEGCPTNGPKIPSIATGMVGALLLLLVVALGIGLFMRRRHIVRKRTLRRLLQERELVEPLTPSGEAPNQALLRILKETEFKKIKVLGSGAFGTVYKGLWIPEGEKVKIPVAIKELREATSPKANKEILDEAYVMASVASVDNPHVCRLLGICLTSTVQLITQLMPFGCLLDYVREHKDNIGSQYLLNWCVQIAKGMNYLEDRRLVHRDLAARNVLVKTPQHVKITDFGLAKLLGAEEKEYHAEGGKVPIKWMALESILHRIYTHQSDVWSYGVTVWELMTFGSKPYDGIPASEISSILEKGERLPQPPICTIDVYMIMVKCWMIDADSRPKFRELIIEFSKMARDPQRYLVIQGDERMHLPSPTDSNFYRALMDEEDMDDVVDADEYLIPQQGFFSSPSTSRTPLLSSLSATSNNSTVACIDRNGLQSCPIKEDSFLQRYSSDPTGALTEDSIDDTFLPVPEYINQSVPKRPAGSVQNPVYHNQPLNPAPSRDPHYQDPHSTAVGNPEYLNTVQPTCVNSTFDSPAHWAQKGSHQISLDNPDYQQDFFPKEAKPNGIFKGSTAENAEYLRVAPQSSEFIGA
T1 sequence (P04626 with tags, fused parts or gaps INS775YVMA): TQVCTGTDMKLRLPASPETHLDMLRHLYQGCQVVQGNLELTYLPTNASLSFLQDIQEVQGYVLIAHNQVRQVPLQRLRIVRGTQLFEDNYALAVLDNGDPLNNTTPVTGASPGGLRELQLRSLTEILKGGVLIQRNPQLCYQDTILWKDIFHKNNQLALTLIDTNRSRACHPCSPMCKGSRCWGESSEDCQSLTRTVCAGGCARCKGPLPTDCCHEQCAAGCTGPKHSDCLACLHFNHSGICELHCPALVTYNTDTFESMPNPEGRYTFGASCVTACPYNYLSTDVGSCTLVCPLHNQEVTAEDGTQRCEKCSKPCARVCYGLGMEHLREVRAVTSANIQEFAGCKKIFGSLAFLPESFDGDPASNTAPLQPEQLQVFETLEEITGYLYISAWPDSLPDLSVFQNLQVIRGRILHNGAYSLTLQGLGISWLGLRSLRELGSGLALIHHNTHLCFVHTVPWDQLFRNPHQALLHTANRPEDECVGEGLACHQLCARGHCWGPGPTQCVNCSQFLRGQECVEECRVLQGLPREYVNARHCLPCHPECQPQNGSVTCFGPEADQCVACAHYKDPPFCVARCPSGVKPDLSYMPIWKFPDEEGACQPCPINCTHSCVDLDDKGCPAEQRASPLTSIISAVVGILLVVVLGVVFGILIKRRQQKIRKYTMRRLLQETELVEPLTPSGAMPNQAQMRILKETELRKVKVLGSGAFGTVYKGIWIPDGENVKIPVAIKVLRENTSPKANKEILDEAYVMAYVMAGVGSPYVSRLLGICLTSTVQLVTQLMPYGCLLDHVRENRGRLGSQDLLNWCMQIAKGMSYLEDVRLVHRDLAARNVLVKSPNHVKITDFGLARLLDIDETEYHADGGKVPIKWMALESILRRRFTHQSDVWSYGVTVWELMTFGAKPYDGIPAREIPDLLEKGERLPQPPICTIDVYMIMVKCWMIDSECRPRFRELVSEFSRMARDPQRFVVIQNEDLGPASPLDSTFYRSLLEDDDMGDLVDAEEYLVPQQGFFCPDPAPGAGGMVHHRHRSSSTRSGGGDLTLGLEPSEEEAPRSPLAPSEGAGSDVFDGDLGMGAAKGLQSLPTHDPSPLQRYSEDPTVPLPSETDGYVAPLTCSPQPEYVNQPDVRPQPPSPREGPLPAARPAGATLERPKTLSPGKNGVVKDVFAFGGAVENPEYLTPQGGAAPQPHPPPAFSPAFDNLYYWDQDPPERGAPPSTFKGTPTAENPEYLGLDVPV

With `C=CC(=O)Nc1cc(Nc2ncnc(Nc3cc(Cl)c(F)cc3C(C)(O)CC)n2)c(OC)cc1N1CC[C@@H](N(C)C)C1` (single isomer, unassigned) [Compound 69, N-(5-(4-(5-chloro-4-fluoro-2-((R)-2-hydroxybutan-2-yl)phenylamino)-1,3,5-triazin-2-ylamino)-2-((R)-3-(dimethylamino)pyrrolidin-1-yl)-4-methoxyphenyl)acrylamide or N-(5-(4-(5-chloro-4-fluoro-2-((S)-2-hydroxybutan-2-yl)phenylamino)-1,3,5-triazin-2-ylamino)-2-((R)-3-(dimethylamino)pyrrolidin-1-yl)-4-methoxyphenyl)acrylamide], the concentration for 50% growth inhibition (GI50) – broadly, the concentration at which growth is held to half of that of the control – in data set [1] (setting [17]) was 70.1 nM; in [3] it was 0.0139 µM; in data set [4] (Homo sapiens, TMD8, 72 h), 0.0101 µM; in [5], 0.0745 µM; in [8], over 3 µM; in [10] (setting [18]) it was 5.5 nM. The figures for the GI50 in data set [11] (setting [19]), in data set [12] (setting [20]) and in [15] were 12.2 nM, 58.1 nM and 0.0891 µM, respectively. The half-maximal inhibitory concentration (IC50) (usually the concentration that gives 50% inhibition) in data set [2] is 0.0331 µM; in data set [6], 0.0463 µM; in [9], 0.0562 µM; in data set [13], 0.0202 µM; in data set [14] it was 0.0012 µM. Further, the intrinsic metabolic clearance (hepatocyte CLint) (usually the capacity of the preparation to metabolise the compound, expressed as a volume cleared per time) at 1 µM stood at 4.12 µL/min/1e6 cells in data set [7] and 10.7 µL/min/1e6 cells in data set [16].

For the compound `C=CC(=O)Nc1cc(Nc2nccc(Nc3cc(Cl)c(F)cc3C(C)(O)CC)n2)c(OC)cc1N1CC[C@@H](N(C)C)C1` (single isomer, unassigned) [Compound 76, N-(5-(4-(5-chloro-4-fluoro-2-((R)-2-hydroxybutan-2-yl)phenylamino)pyrimidin-2-ylamino)-2-((R)-3-(dimethylamino)pyrrolidin-1-yl)-4-methoxyphenyl) acrylamide or N-(5-(4-(5-chloro-4-fluoro-2-((S)-2-hydroxybutan-2-yl)phenylamino)pyrimidin-2-ylamino)-2-((R)-3-(dimethylamino)pyrrolidin-l-yl)-4-methoxyphenyl) acrylamide], the GI50 stood at 113 nM in [1] (setting [17]); 0.00593 µM in [3]; 0.00844 µM in [4]; 0.00293 µM in [5]; 1.07 µM in [8]; 5.4 nM in [10] (setting [18]). Also, the values for the 50% growth inhibitory concentration (GI50) in data set [11] (setting [19]), in data set [12] (setting [20]) and in data set [15] were 38.3 nM, 85.9 nM and 0.0977 µM, respectively. Further, the half-maximal inhibitory concentration (IC50) in data set [2] is 0.0116 µM; in data set [6], 0.0279 µM; in [9], 0.596 µM; in data set [13] it was 0.103 µM; in data set [14], 0.0018 µM. Moreover, the hepatocyte CLint at 1 µM amounted to 4.01 µL/min/1e6 cells in [7] and 13.9 µL/min/1e6 cells in data set [16].

With `C=CC(=O)Nc1cc(Nc2ncnc(Nc3cc(Cl)c(F)cc3C(C)(C)O)n2)c(OC)cc1N(C)CCN(C)C` [Compound 11, N-(5-(4-(5-chloro-4-fluoro-2-(2-hydroxypropan-2-yl)phenylamino)-1,3,5-triazin-2-ylamino)-2-((2-(dimethylamino)ethyl)(methyl)amino)-4-methoxyphenyl)acrylamide], the 50% growth inhibitory concentration (GI50) in data set [1] (setting [17]) was 25.2 nM; in [3] (Ri-1, 72 h) it was 0.026 µM; in data set [4] (Homo sapiens, TMD8, 72 h) it was 0.0109 µM; in data set [5] (Homo sapiens, OCI-Ly10, 72 h), 0.0028 µM; in data set [8] it was 2.79 µM; in data set [10] (setting [18]) it was 7.7 nM. In addition, the GI50 in [11] (setting [19]) turned out to be 13 nM; in data set [12] (setting [20]), 21.6 nM; in [15] it was 0.0207 µM. Besides, the concentration for half-maximal inhibition (IC50) was determined as 0.003 µM in data set [2]; 0.0097 µM in data set [6]; 0.0076 µM in data set [9]; 0.0069 µM in [13]; 0.0003 µM in data set [14]. Also, the hepatocyte CLint at 1 µM in data set [7] was found to be 7.12 µL/min/1e6 cells; in data set [16], 161 µL/min/1e6 cells.

Regarding `[2H]C([2H])([2H])N(CCN(C)c1cc(OC)c(Nc2ncnc(Nc3cc(F)c(F)cc3C(C)(C)O)n2)cc1NC(=O)C=C)C([2H])([2H])[2H]` [Compound 22, N-(2-((2-(bis(methyl-d3)amino)ethyl)(methyl)amino)-5-((4-((4,5-difluoro-2-(2-hydroxypropan-2-yl)phenyl)amino)-1,3,5-triazin-2-yl)amino)-4-methoxyphenyl) acrylamide], the GI50 in data set [1] (setting [17]) amounted to 26.5 nM; in [10] (setting [18]) it was 2.7 nM; in data set [11] (setting [19]), 12 nM; in data set [12] (setting [20]), 26.5 nM; in [15], 0.0444 µM. Also, the IC50 in data set [2] was 0.0055 µM; in data set [6], 0.0112 µM; in data set [9] it was 0.0122 µM; in [13], 0.0087 µM; in [14] it was 0.0004 µM. For the same compound, the hepatocyte CLint at 1 µM is 9.78 µL/min/1e6 cells in data set [7] and 78.4 µL/min/1e6 cells in data set [16].

For the compound `C=CC(=O)Nc1cc(Nc2nccc(Nc3cc(Cl)c(F)cc3C(C)(C)O)n2)c(OC)cc1N(C)CCN(C)C` [Compound 36, (N-(5-(4-(5-chloro-4-fluoro-2-(2-hydroxypropan-2-yl)phenylamino)pyrimidin-2-ylamino)-2-((2-(dimethylamino)ethyl)(methyl)amino)-4-methoxyphenyl)acrylamide)], the GI50 turned out to be 37.8 nM in data set [1] (setting [17]); 0.0082 µM in data set [3] (Ri-1, 72 h); 0.00832 µM in data set [4] (Homo sapiens, TMD8, 72 h); 0.00641 µM in [5] (Homo sapiens, OCI-Ly10, 72 h); 0.881 µM in data set [8]; 1.6 nM in [10] (setting [18]). In addition, the figures for the GI50 in data set [11] (setting [19]), in data set [12] (setting [20]) and in data set [15] were 41.6 nM, 42.7 nM and 0.0752 µM, respectively. The concentration for half-maximal inhibition (IC50) in [2] was determined as 0.0053 µM. In addition, the intrinsic clearance (hepatocyte CLint) at 1 µM was 10.3 µL/min/1e6 cells in data set [7] and over 300 µL/min/1e6 cells in [16].

Take `C=CC(=O)Nc1cc(Nc2nccc(Nc3cc(Cl)c(F)cc3C(C)(C)O)n2)c(OC)cc1N1CCC[C@@H]1CN1CCC1` [Compound 98, (R)-N-(2-(2-(azetidin-1-ylmethyl)pyrrolidin-1-yl)-5-(4-(5-chloro-4-fluoro-2-(2-hydroxypropan-2-yl)phenylamino)pyrimidin-2-ylamino)-4-methoxyphenyl) acrylamide formic acid salt]: the GI50 is 129 nM in [1] (read-out: EGFR Exon20 ASV insertion GI50 (nM)); 0.108 µM in data set [3] (Ri-1, 72 h); 0.0715 µM in data set [4] (Homo sapiens, TMD8, 72 h); 0.115 µM in [5] (Homo sapiens, OCI-Ly10, 72 h); over 3 µM in data set [8]; 3.1 nM in data set [10] (read-out: EGFR L858R and T790M mutation GI50 (nM)). For the same compound, the figures for the GI50 in data set [11] (read-out: EGFR WT A431 GI50 (nM)), in [12] (read-out: EGFR Exon20 NPH insertion GI50 (nM)) and in [15] were 87.8 nM, 112 nM and 0.135 µM, respectively. Besides, the IC50 in [2] is 0.0031 µM; in [6] it was 0.0191 µM; in [9] it was 0.19 µM; in data set [13], 0.0214 µM; in data set [14] it was 0.0009 µM. Besides, in data set [7], the intrinsic metabolic clearance (hepatocyte CLint) at 1 µM worked out at 7.6 µL/min/1e6 cells.

For the origin of these results see patent US20230293535A1, “ERBB/BTK INHIBITORS” (Dizal (Jiangsu) Pharmaceutical Co., Ltd., priority 2018, published 2023).
